In patent publication US9113629B2, “4-amino-6-(4-substituted-phenyl)-picolinates and 6-amino-2-(4-substituted-phenyl)-pyrimidine-4-carboxylates and their use as herbicides” (DOW AGROSCIENCES LLC, priority 2013, dated 2015):
Like-named read-outs stand apart in the source and are kept apart here.

Assays:
[1] = test system: Key Broadleaf Weed and Crop Species; assay: Post-emergent Test II herbicidal activity (Table 5); assay type: in vivo; details: post-emergence, 336 h, 14 days after application; for pest or weed control at 70 g/ha: application rate 70 g ai/ha; for pest or weed control at 140 g/ha: application rate 140 g ai/ha
In short: (§1)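 Percent injury, 0 (none) to 100 (complete kill), was judged visually 14 d after spraying young plants at the first or second true leaf stage with compound in an acetone/DMSO aqueous carrier at 187 L/ha. Plants were kept in a greenhouse at 23–29 °C by day.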

[2] = test system: Key Grass and Sedge Weeds as well as Grass Crops; assay: Post-emergent Test II herbicidal activity (Table 6); assay type: in vivo; details: post-emergence, 336 h; for pest or weed control at 70 g/ha: 70 g ai/ha; for pest or weed control at 140 g/ha: 140 g ai/ha
In short: as §1

[3] = ABUTH: velvetleaf (Abutilon theophrasti), read-out: Visual Growth Reduction (%) 14 Days After Application, ABUTH
[4] = AMARE: redroot pigweed (Amaranthus retroflexus), read-out: Visual Growth Reduction (%) 14 Days After Application, AMARE
[5] = BRSNN: oilseed-rape, canola (Brassica napus), read-out: Visual Growth Reduction (%) 14 Days After Application, BRSNN
[6] = CHEAL: lambsquarters (Chenopodium album), read-out: Visual Growth Reduction (%) 14 Days After Application, CHEAL
[7] = EPHHL: wild poinsettia (Euphorbia heterophylla), read-out: Visual Growth Reduction (%) 14 Days After Application, EPHHL
[8] = HELAN: sunflower (Helianthus annuus), read-out: Visual Growth Reduction (%) 14 Days After Application, HELAN
[9] = VIOTR: wild pansy (Viola tricolor), read-out: Visual Growth Reduction (%) 14 Days After Application, VIOTR
[10] = CYPES: yellow nutsedge (Cyperus esculentus), read-out: Visual Growth Reduction (%) 14 Days After Application, CYPES
[11] = DIGSA: crabgrass (Digitaria sanguinalis), read-out: Visual Growth Reduction (%) 14 Days After Application, DIGSA
[12] = ECHCG: barnyardgrass (Echinochloa crus-galli), read-out: Visual Growth Reduction (%) 14 Days After Application, ECHCG
[13] = ORYSA: rice (Oryza sativa), crop, read-out: Visual Growth Reduction (%) 14 Days After Application, ORYSA
[14] = SETFA: giant foxtail (Setaria faberi), read-out: Visual Growth Reduction (%) 14 Days After Application, SETFA
[15] = SORVU: grain sorghum (Sorghum vulgare), read-out: Visual Growth Reduction (%) 14 Days After Application, SORVU
[16] = TRZSS (wheat, Triticum aestivum), crop, read-out: Visual Growth Reduction (%) 14 Days After Application, TRZSS
[17] = ZEAMX: maize, corn (Zea mays), crop, read-out: Visual Growth Reduction (%) 14 Days After Application, ZEAMX

COC(=O)c1nc(-c2ccc(OC(F)F)cc2)c(F)c(N)c1Cl [Compound 85]
pest or weed control at 70 g/ha [1, 3]: 95 to 100%
pest or weed control at 140 g/ha [1, 3]: 95 to 100%
pest or weed control at 70 g/ha [1, 4]: 95 to 100%
pest or weed control at 140 g/ha [1, 4]: 95 to 100%
pest or weed control at 70 g/ha [1, 5]: 45 to 59%
pest or weed control at 140 g/ha [1, 5]: 60 to 74%
pest or weed control at 70 g/ha [1, 6]: 85 to 94%
pest or weed control at 140 g/ha [1, 6]: 95 to 100%
pest or weed control at 70 g/ha [1, 7]: 95 to 100%
pest or weed control at 140 g/ha [1, 7]: 95 to 100%
pest or weed control at 70 g/ha [1, 8]: 85 to 94%
pest or weed control at 140 g/ha [1, 8]: 95 to 100%
pest or weed control at 70 g/ha [1, 9]: 0 to 29%
pest or weed control at 140 g/ha [1, 9]: 0 to 29%
pest or weed control at 70 g/ha [2, 10]: 85 to 94%
pest or weed control at 140 g/ha [2, 10]: 85 to 94%
pest or weed control at 70 g/ha [2, 11]: 30 to 44%
pest or weed control at 140 g/ha [2, 11]: 30 to 44%
pest or weed control at 70 g/ha [2, 12]: 95 to 100%
pest or weed control at 140 g/ha [2, 12]: 95 to 100%
pest or weed control at 70 g/ha [2, 13]: 0 to 29%
pest or weed control at 140 g/ha [2, 13]: 0 to 29%
pest or weed control at 70 g/ha [2, 14]: 45 to 59%
pest or weed control at 140 g/ha [2, 14]: 75 to 84%
pest or weed control at 70 g/ha [2, 15]: 75 to 84%
pest or weed control at 140 g/ha [2, 15]: 85 to 94%
pest or weed control at 70 g/ha [2, 16]: 30 to 44%
pest or weed control at 140 g/ha [2, 16]: 30 to 44%
pest or weed control at 70 g/ha [2, 17]: 75 to 84%
pest or weed control at 140 g/ha [2, 17]: 75 to 84%
